# Reference: patent US9802927B2, “Oxadiazine compounds and methods of use thereof” (Denali Therapeutics, Inc., priority 2015, dated 2017)
# System: Aβ42
# Experiment: In vitro cell screening assay in H4 cells expressing human APP751: Aβ42 by sandwich ELISA
# Format: cell-based
# Settings: Homo sapiens, compounds 0.003-10 μM, incubated overnight (16-18 h), sandwich ELISA of supernatant
# Procedure, shortened: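 H4 neuroglioma cells stably expressing wild-type human APP751, switched to Pro293 medium and treated with compounds (0.003-10 μM, 0.33% DMSO) for 16-18 h at 37 °C. Supernatant Aβ42 quantified by sandwich ELISA (C-terminal capture, 4G8-HRP detection, A450); EC50 by sigmoidal fit normalized to DMSO and DAPT controls.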
row,EC50 [nM],SMILES
1,> 3000,"COc1nc(C2=NOCC(c3oc(C)nc3C)N2)ccc1-n1cnc(C)c1 (single isomer, unassigned; (-)) [Example 161A, (−)-5-(2,4-dimethyloxazol-5-yl)-3-(6-methoxy-5-(4-methyl-1H-imidazol-1-yl)pyridin-2-yl)-5,6-dihydro-4H-1,2,4-oxadiazine]"
2,390,"COc1nc(C2=NOC[C@H](c3cc4ccccc4o3)N2C)ccc1-n1cnc(C)c1 [Example 32, (R)-5-(Benzofuran-2-yl)-3-(6-methoxy-5-(4-methyl-1H-imidazol-1-yl)pyridin-2-yl)-4-methyl-5,6-dihydro-4H-1,2,4-oxadiazine]"
3,47.1,"COc1nc(C2=NOCC(c3cn(C)c4cccc(C#N)c34)N2)ccc1-n1cnc(C)c1 (single isomer, unassigned; (+)) [Example 247A, (+)-3-(3-(6-methoxy-5-(4-methyl-1H-imidazol-1-yl)pyridin-2-yl)-5,6-dihydro-4H-1,2,4-oxadiazin-5-yl)-1-methyl-1H-indole-4-carbonitrile]"

# Same assay, conditions: compounds 0.003-10 μM, incubated overnight (16-18 h), sandwich ELISA of supernatant
row,EC50 [nM],SMILES
1,147,"COc1nc(C2=NOCC(c3cn(C)c4cc(Cl)ccc34)N2)ccc1-n1cnc(C)c1 (single isomer, unassigned; (-)) [Example 194B, (−)-5-(6-chloro-1-methyl-1H-indol-3-yl)-3-(6-methoxy-5-(4-methyl-1H-imidazol-1-yl)pyridin-2-yl)-5,6-dihydro-4H-1,2,4-oxadiazine]"
2,11.2,"COc1nc(C2=NOCC(c3cn(C4CC4)c4cccc(F)c34)N2)ccc1-n1cnc(C)c1 (single isomer, unassigned; (+)) [Example 222A, (+)-5-(1-cyclopropyl-4-fluoro-1H-indol-3-yl)-3-(6-methoxy-5-(4-methyl-1H-imidazol-1-yl)pyridin-2-yl)-5,6-dihydro-4H-1,2,4-oxadiazine]"
3,450,"COc1nc(C2=NOCC(c3cn(C)c4ncc(C5CC5)cc34)N2)ccc1-n1cnc(C)c1 (single isomer, unassigned; (-)) [Example 266A, (−)-5-(5-cyclopropyl-1-methyl-1H-pyrrolo[2,3-b]pyridin-3-yl)-3-(6-methoxy-5-(4-methyl-1H-imidazol-1-yl)pyridin-2-yl)-5,6-dihydro-4H-1,2,4-oxadiazine]"
4,13.1,"COc1nc(C2=NOCC(c3ccc(Cl)c(C4CC4)c3)N2)ccc1-n1cnc(C)c1 (single isomer, unassigned; (+)) [Example 239B, (+)-5-(4-chloro-3-cyclopropylphenyl)-3-(6-methoxy-5-(4-methyl-1H-imidazol-1-yl)pyridin-2-yl)-5,6-dihydro-4H-1,2,4-oxadiazine]"
5,22.6,"COc1nc(C2=NOCC(c3cc(F)cc(Cl)c3)N2)ccc1-n1cnc(C)c1 (single isomer, unassigned; (+)) [Example 111B, (+)-5-(3-chloro-5-fluorophenyl)-3-(6-methoxy-5-(4-methyl-1H-imidazol-1-yl)pyridin-2-yl)-5,6-dihydro-4H-1,2,4-oxadiazine]"
6,23.1,"COc1nc(C2=NOCC(c3c[nH]c4ccccc34)N2)ccc1-n1cnc(C)c1 (single isomer, unassigned) [Example 47B, 5-(1H-indol-3-yl)-3-(6-methoxy-5-(4-methyl-1H-imidazol-1-yl)pyridin-2-yl)-5,6-dihydro-4H-1,2,4-oxadiazine]"
7,16.7,"COc1nc(C2=NOCC(c3oc4ccccc4c3C)N2)ccc1-n1cnc(C)c1 (stereo not shown) [Example 16B, 3-(6-methoxy-5-(4-methyl-1H-imidazol-1-yl)pyridin-2-yl)-5-(3-methylbenzofuran-2-yl)-5,6-dihydro-4H-1,2,4-oxadiazine]"
8,1730,"COc1nc(C2=NOCC(c3cc4ccccc4n3C)N2)ccc1-n1cnc(C)c1 (single isomer, unassigned; (-)) [Example 205A, (−)-3-(6-methoxy-5-(4-methyl-1H-imidazol-1-yl)pyridin-2-yl)-5-(1-methyl-1H-indol-2-yl)-5,6-dihydro-4H-1,2,4-oxadiazine]"
9,71,"COc1nc(C2=NOCC(c3cn(C)c4ccc(Cl)cc34)N2)ccc1-n1cnc(C)c1 (single isomer, unassigned; (-)) [Example 193A, (−)-5-(5-chloro-1-methyl-1H-indol-3-yl)-3-(6-methoxy-5-(4-methyl-1H-imidazol-1-yl)pyridin-2-yl)-5,6-dihydro-4H-1,2,4-oxadiazine]"
10,143,"COc1nc(C2=NOCC(c3ccccc3Cl)N2)ccc1-n1cnc(C)c1 (single isomer, unassigned) [Example 136A, 5-(2-chlorophenyl)-3-(6-methoxy-5-(4-methyl-1H-imidazol-1-yl)pyridin-2-yl)-5,6-dihydro-4H-1,2,4-oxadiazine]"
11,> 3000,"COc1nc(C2=NOCC(c3cccc(C(F)(F)F)c3)N2)ccc1-n1cnc(C)c1 (single isomer, unassigned; (-)) [Example 113A, (−)-3-(6-methoxy-5-(4-methyl-1H-imidazol-1-yl)pyridin-2-yl)-5-(3-(trifluoromethyl)phenyl)-5,6-dihydro-4H-1,2,4-oxadiazine]"
12,14,"COc1nc(C2=NOCC(c3ccc4c(c3)OC(F)(F)O4)N2)ccc1-n1cnc(C)c1 (single isomer, unassigned; (+)) [Example 225B]"
13,2210,"COc1nc(C2=NOCC(c3ccc4sc(C)nc4c3)N2)ccc1-n1cnc(C)c1 (single isomer, unassigned; (-)) [Example 215A, (−)-3-(6-methoxy-5-(4-methyl-1H-imidazol-1-yl)pyridin-2-yl)-5-(2-methylbenzo[d]thiazol-5-yl)-5,6-dihydro-4H-1,2,4-oxadiazine]"
14,25.2,"COc1nc(C2=NOCC(c3cn(C)c4cccc(C(F)(F)F)c34)N2)ccc1-n1cnc(C)c1 (single isomer, unassigned; (-)) [Example 230B, (−)-3-(6-methoxy-5-(4-methyl-1H-imidazol-1-yl)pyridin-2-yl)-5-(1-methyl-4-(trifluoromethyl)-1H-indol-3-yl)-5,6-dihydro-4H-1,2,4-oxadiazine]"
15,4.9,"COc1nc(C2=NOCC(c3cn(C)c4ccc(Cl)cc34)N2)ccc1-n1cnc(C)c1 (single isomer, unassigned; (+)) [Example 193B, (+)-5-(5-chloro-1-methyl-1H-indol-3-yl)-3-(6-methoxy-5-(4-methyl-1H-imidazol-1-yl)pyridin-2-yl)-5,6-dihydro-4H-1,2,4-oxadiazine]"
16,220,"COc1nc(C2=NOCC(c3cn(C(C)C)c4cccc(F)c34)N2)ccc1-n1cnc(C)c1 (single isomer, unassigned; (-)) [Example 196B, (−)-5-(4-fluoro-1-isopropyl-1H-indol-3-yl)-3-(6-methoxy-5-(4-methyl-1H-imidazol-1-yl)pyridin-2-yl)-5,6-dihydro-4H-1,2,4-oxadiazine]"
17,1010,"COc1nc(C2=NOCC(c3cc4c(Cl)cccc4o3)N2)ccc1-n1cnc(C)c1 (single isomer, unassigned; (-)) [Example 96A, (−)-5-(4-chlorobenzofuran-2-yl)-3-(6-methoxy-5-(4-methyl-1H-imidazol-1-yl)pyridin-2-yl)-5,6-dihydro-4H-1,2,4-oxadiazine]"
18,667,"COc1nc(C2=NOCC(c3cc4ccc(F)cc4o3)N2)ccc1-n1cnc(C)c1 (single isomer, unassigned; (-)) [Example 52A, (−)-5-(6-fluorobenzofuran-2-yl)-3-(6-methoxy-5-(4-methyl-1H-imidazol-1-yl)pyridin-2-yl)-5,6-dihydro-4H-1,2,4-oxadiazine]"
19,294,"COc1nc(C2=NOCC(c3ccc4ncccc4c3)N2)ccc1-n1cnc(C)c1 (single isomer, unassigned; (+)) [Example 224B, (+)-3-(6-methoxy-5-(4-methyl-1H-imidazol-1-yl)pyridin-2-yl)-5-(quinolin-6-yl)-5,6-dihydro-4H-1,2,4-oxadiazine]"
20,1170,"COc1nc(C2=NOCC(c3cc4ccccc4o3)N2)ccc1-n1cnc(C)c1 (single isomer, unassigned; (-)) [Example 186A, (−)-5-(benzofuran-2-yl)-3-(6-methoxy-5-(4-methyl-1H-imidazol-1-yl)pyridin-2-yl)-5,6-dihydro-4H-1,2,4-oxadiazine]"
21,759,"COc1nc(C2=NOCC(c3cc4cccc(Cl)c4o3)N2)ccc1-n1cnc(C)c1 (single isomer, unassigned; (-)) [Example 64A, (−)-5-(7-chlorobenzofuran-2-yl)-3-(6-methoxy-5-(4-methyl-1H-imidazol-1-yl)pyridin-2-yl)-5,6-dihydro-4H-1,2,4-oxadiazine]"
22,15.5,"COc1nc(C2=NOCC(c3cn(C)c4ncc(C5CC5)cc34)N2)ccc1-n1cnc(C)c1 (single isomer, unassigned; (+)) [Example 266B, (+)-5-(5-cyclopropyl-1-methyl-1H-pyrrolo[2,3-b]pyridin-3-yl)-3-(6-methoxy-5-(4-methyl-1H-imidazol-1-yl)pyridin-2-yl)-5,6-dihydro-4H-1,2,4-oxadiazine]"
23,120,"COc1nc(C2=NOCC(c3cn(C)c4cc(F)c(C)cc34)N2)ccc1-n1cnc(C)c1 (single isomer, unassigned; (-)) [Example 257A, (−)-5-(6-fluoro-1,5-dimethyl-1H-indol-3-yl)-3-(6-methoxy-5-(4-methyl-1H-imidazol-1-yl)pyridin-2-yl)-5,6-dihydro-4H-1,2,4-oxadiazine]"
24,2460,"COc1nc(C2=NOCC(C3CCOCC3)N2)ccc1-n1cnc(C)c1 (single isomer, unassigned; (+)) [Example 143B, (+)-3-(6-methoxy-5-(4-methyl-1H-imidazol-1-yl)pyridin-2-yl)-5-(tetrahydro-2H-pyran-4-yl)-5,6-dihydro-4H-1,2,4-oxadiazine]"
25,21.6,"COc1nc(C2=NOCC(c3ccc(F)c(C(F)(F)F)c3)N2)ccc1-n1cnc(C)c1 (single isomer, unassigned) [Example 44B, 5-(4-fluoro-3-(trifluoromethyl)phenyl)-3-(6-methoxy-5-(4-methyl-1H-imidazol-1-yl)pyridin-2-yl)-5,6-dihydro-4H-1,2,4-oxadiazine]"
